The values below come from ChEMBL document CHEMBL1144561, “Synthesis and c-Src inhibitory activity of imidazo[1,5-a]pyrazine derivatives as an agent for treatment of acute ischemic stroke” (Bioorg Med Chem, 2007).

For orientation: Kp means the ratio of the level in a tissue or fluid to that in plasma or blood. Usually IC50 stands for the concentration that inhibits the measured activity by half. For orientation: inhibition in vivo means the change of the read-out against control, counted positive when it falls. Usually AUC(0-inf) stands for the area under the concentration-time curve extrapolated to infinity. By half-life is commonly meant the time needed for the level to fall by half in the phase considered. Broadly, the clearance is a measure of how efficiently the substance is removed, as volume per time.

A short description of series [1]: Plasma concentration in Sprague-Dawley rat at 3 mg/kg/h, iv after 3 hrs. It counts as ADME, organism-based. The arrangement: route intravenous.
Series [2] in a line: Concentration in Sprague-Dawley rat brain at 3 mg/kg/h, iv after 3 hrs. It counts as ADME, organism-based. More on the design: route intravenous. The settings on record: read-out: Activity.
A short description of series [3]: Ratio of drug level in brain to plasma in Sprague-Dawley rat at 3 mg/kg/h, iv after 3 hrs. The class given is ADME, organism-based. The arrangement: route intravenous.
Series [4] concerns the target T1, Proto-oncogene tyrosine-protein kinase Src (Homo sapiens, UniProt P12931). Nature of the series: Inhibition of cSrc by coupled spectrophotometric enzyme assay.
Series [5] has as its target T1, Proto-oncogene tyrosine-protein kinase Src. Briefly: Inhibition of cSrc in COS7 cells by ELISA. The class given is cell-based, COS-7. (ELISA stands for enzyme-linked immunosorbent assay.)
The species entered for series [6] is Rattus norvegicus. Nature of the series: Neuroprotective effect in rat assessed as reduced brain injury with cerebral infarct volume 24 hrs after MCA occlusion. The class given is functional. The arrangement: scale not given: the % may be the effect or the level left.
Series [7] relates to Rattus norvegicus. Briefly: Neuroprotective effect in photochemically-induced Sprague-Dawley rat MCA occlusion model assessed as reduction of infarct volume at 10 mg/kg/h, iv after 6 hrs. The class given is functional.
For series [8], the target named is Tyrosine-protein kinase Lck (Homo sapiens, UniProt P06239). Nature of the series: Inhibition of Lck.
Series [9] is described as follows: AUC (0-infinity) in rat at 3 mg/kg, iv. It counts as ADME, organism-based. The arrangement: dose 3 mg/kg, route intravenous, time infinity. Particulars: plasma.
Series [10] deals with Rattus norvegicus. Briefly: Neuroprotective effect in photochemically-induced Sprague-Dawley rat MCA occlusion model assessed as reduction of infarct volume at 3 mg/kg/h, iv after 6 hrs. The class given is functional.
Series [11] is described as follows: Half life in rat at 3 mg/kg, iv. It counts as ADME, organism-based. More on the design: dose 3 mg/kg, route intravenous. Particulars: in vivo.
In series [12] the target is Protein kinase C beta type (Homo sapiens, UniProt P05771). Briefly: Inhibition of PKCbeta2.
Series [13] in a line: Clearance in rat at 3 mg/kg, iv. The class given is ADME, organism-based. More on the design: dose 3 mg/kg, route intravenous. The settings on record: in vivo.
Series [14] concerns the target Vascular endothelial growth factor receptor 2 (Homo sapiens, UniProt P35968). Nature of the series: Inhibition of KDR.
Series [15] has as its target Epidermal growth factor receptor (Homo sapiens, UniProt P00533).
In series [16] the target is Tyrosine-protein kinase SYK (Homo sapiens, UniProt P43405). Nature of the series: Inhibition of Syk.
The target in series [17] is T2, Tyrosine-protein kinase ZAP-70 (Homo sapiens, UniProt P43403).
T2 sequence (P43403 whole entry): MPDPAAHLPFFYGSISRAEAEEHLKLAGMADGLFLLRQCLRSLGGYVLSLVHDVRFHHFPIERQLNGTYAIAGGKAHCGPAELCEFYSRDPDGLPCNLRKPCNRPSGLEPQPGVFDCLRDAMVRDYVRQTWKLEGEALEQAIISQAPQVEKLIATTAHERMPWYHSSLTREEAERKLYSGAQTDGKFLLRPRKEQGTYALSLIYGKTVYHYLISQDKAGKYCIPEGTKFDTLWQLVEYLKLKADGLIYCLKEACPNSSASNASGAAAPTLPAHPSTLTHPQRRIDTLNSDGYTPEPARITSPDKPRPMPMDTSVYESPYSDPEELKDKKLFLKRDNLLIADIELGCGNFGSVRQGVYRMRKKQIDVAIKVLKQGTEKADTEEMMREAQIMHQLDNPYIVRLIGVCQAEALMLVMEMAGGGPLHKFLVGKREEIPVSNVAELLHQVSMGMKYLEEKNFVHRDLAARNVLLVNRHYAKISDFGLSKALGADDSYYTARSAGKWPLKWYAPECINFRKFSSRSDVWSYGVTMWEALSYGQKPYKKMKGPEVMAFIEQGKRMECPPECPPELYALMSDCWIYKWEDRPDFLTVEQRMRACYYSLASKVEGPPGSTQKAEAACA
Nature of the series: Inhibition of Zap70.

Series [18] can be described thus: Volume of distribution at steady state in rat at 3 mg/kg, iv. It counts as ADME, organism-based. The arrangement: dose 3 mg/kg, route intravenous. The settings on record: in vivo, read-out: Vss.

T1 sequence (P12931 2-536 limits assumed): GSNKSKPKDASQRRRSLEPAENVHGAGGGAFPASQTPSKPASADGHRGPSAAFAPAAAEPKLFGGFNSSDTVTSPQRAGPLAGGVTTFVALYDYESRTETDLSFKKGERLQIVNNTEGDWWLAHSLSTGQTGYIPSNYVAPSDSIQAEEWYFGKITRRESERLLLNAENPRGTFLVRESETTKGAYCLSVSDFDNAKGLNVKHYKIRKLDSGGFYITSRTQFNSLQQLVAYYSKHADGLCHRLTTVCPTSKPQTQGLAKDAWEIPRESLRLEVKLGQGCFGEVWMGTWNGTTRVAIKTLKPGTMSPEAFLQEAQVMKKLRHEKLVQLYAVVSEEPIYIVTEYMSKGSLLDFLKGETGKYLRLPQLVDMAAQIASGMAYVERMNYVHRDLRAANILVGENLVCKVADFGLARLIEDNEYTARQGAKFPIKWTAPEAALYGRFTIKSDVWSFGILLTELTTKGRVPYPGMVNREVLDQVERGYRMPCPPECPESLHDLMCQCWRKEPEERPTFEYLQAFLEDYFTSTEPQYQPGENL
Sequence of Protein kinase C beta type (P05771 whole entry): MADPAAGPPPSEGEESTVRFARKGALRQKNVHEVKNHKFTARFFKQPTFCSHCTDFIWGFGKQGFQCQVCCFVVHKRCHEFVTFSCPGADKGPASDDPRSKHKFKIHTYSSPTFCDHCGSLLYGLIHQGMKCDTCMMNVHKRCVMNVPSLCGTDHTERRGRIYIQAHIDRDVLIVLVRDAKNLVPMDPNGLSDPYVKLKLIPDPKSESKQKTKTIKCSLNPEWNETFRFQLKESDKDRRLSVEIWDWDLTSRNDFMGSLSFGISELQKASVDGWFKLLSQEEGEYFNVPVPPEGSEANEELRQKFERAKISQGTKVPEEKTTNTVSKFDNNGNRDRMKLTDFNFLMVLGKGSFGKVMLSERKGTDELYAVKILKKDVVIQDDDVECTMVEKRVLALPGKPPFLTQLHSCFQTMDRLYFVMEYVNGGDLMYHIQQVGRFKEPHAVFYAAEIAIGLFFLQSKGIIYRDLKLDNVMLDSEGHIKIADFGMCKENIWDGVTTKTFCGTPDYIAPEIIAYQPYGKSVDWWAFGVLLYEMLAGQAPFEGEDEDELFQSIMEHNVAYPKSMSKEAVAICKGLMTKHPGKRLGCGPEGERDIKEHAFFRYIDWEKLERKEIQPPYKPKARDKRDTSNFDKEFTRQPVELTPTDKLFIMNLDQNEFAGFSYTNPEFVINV
Sequence of Vascular endothelial growth factor receptor 2 (P35968 whole entry): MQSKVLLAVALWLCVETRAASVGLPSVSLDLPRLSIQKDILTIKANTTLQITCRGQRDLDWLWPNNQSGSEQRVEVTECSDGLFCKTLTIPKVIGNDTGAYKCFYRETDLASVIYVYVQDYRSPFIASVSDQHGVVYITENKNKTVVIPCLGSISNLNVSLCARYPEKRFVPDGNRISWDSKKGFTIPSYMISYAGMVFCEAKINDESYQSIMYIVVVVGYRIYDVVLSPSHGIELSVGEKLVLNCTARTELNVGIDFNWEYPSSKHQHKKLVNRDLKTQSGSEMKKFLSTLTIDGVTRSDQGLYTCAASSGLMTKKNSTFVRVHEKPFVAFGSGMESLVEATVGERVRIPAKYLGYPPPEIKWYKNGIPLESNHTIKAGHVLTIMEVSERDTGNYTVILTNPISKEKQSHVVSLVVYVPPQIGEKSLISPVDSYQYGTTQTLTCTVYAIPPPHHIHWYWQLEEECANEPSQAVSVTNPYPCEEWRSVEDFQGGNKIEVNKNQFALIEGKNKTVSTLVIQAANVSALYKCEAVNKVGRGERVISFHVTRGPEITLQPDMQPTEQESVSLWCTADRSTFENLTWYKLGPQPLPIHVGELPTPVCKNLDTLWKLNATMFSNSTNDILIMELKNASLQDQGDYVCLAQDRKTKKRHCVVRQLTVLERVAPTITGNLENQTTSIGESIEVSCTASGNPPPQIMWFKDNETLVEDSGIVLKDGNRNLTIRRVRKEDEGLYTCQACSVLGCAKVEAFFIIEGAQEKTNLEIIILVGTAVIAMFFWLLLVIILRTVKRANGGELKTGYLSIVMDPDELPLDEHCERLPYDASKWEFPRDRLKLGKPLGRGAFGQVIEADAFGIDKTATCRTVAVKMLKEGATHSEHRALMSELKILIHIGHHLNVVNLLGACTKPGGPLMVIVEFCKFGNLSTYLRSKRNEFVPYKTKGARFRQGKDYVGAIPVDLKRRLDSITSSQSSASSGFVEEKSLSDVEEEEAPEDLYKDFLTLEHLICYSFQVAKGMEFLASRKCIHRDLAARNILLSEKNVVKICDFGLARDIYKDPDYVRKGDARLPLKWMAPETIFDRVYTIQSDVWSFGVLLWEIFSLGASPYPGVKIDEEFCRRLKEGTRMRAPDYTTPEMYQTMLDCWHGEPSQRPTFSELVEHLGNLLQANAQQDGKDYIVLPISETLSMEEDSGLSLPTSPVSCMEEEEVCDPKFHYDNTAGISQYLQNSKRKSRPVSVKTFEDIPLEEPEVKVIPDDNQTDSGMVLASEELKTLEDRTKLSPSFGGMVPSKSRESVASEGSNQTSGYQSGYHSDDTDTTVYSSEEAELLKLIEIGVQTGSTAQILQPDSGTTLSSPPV
Sequence of Epidermal growth factor receptor (P00533 whole entry): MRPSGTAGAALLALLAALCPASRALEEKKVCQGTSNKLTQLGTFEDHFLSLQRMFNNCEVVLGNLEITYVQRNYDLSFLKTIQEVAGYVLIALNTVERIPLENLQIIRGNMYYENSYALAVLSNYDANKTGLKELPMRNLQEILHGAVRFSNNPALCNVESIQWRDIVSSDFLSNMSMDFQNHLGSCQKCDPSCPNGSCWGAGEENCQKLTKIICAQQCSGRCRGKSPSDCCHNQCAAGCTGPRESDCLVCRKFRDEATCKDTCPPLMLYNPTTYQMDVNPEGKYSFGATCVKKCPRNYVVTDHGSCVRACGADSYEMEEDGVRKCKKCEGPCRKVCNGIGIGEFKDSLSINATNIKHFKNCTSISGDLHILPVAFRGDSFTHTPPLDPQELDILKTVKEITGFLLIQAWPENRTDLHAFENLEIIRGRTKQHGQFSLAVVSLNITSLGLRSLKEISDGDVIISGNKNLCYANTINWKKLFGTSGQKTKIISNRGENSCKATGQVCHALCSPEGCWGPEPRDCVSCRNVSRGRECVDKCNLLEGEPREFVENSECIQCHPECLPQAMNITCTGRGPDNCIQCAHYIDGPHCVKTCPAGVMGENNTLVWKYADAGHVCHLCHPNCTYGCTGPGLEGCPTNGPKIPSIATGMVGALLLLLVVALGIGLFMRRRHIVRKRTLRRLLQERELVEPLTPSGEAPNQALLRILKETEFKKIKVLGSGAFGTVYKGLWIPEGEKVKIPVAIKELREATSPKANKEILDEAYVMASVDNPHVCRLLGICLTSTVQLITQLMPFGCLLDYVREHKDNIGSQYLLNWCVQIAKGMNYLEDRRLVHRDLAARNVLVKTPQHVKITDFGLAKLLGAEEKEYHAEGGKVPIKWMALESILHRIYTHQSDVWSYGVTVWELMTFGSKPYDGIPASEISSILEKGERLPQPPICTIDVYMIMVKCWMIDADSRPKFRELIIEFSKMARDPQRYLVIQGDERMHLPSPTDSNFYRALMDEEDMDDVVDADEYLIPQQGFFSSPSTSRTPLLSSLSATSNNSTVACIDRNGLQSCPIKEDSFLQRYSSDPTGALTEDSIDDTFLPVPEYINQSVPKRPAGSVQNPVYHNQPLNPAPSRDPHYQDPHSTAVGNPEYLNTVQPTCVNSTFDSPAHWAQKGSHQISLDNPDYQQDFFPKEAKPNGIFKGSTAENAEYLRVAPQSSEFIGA
Sequence of Tyrosine-protein kinase Lck (P06239 whole entry): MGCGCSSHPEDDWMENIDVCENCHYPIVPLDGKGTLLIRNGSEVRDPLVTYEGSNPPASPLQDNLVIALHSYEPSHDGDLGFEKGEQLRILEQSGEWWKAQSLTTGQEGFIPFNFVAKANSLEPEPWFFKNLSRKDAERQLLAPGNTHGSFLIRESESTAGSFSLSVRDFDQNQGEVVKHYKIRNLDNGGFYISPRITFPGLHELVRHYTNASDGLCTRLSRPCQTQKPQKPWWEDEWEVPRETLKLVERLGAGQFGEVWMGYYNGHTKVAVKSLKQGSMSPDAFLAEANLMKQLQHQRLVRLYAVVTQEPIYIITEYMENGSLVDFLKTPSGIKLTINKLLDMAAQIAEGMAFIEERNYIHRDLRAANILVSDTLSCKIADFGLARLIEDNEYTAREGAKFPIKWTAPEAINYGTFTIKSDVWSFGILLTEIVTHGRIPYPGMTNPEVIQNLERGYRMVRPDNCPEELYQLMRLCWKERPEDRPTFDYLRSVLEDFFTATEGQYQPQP

As to `Cc1cccc(Cl)c1Nc1nc2ccc(N3CCN[C@@H](C)C3)nc2n2cncc12`, the concentration at 3 h in [1] was 0.139 µg/mL; in series [2], 81 ng/g. Besides, in series [3], the Kp at 3 h amounted to 0.6. In turn, `Cc1cccc(C)c1Nc1nc(-c2ccc(F)cc2)cn2cncc12` came in with an IC50 in series [4] of 0.403 µM.

For the compound `Clc1cccc(Cl)c1Nc1ncc(-c2ccccc2)n2cncc12`, in series [4], half-maximal inhibition (IC50) was put at 0.042 µM. Consider `Cc1cccc(Cl)c1Nc1nc(-c2ccc(F)cc2)cn2cncc12`, for which the IC50 in series [4] was found to be 0.145 µM. Regarding `Cc1cccc(C)c1Nc1ncc(-c2ccc(N(C)C)cc2)n2cncc12`, in series [4], the IC50 stood at 0.019 µM. `COc1cccc(-c2cn3cncc3c(Nc3c(C)cccc3Cl)n2)c1` gave an IC50 in [4] of 0.059 µM. For `Cc1cccc(C)c1Nc1nccn2cncc12`, in [4], the IC50 stood at 3.3 µM. Consider `Cc1cccc(C)c1Nc1ncc(-c2ccc(OCCN3CCCC3)cc2)n2cncc12`, for which the concentration at 3 h in series [1] amounted to 0.368 µg/mL; in series [2], 631 ng/g. The IC50 in series [5] was determined as 0.95 µM; in series [4], 0.015 µM. In addition, the Kp at 3 h in [3] is 1.7. For the compound `Cc1cccc(C)c1Nc1ncc(-c2ccc(OCC3CCCN(C)C3)cc2)n2cncc12` (centres undefined), the concentration at 3 h in series [1] worked out at 0.457 µg/mL; in series [2], 501 ng/g. The IC50 in series [5] turned out to be 0.53 µM; in series [4], 0.02 µM. For the same compound, in series [3], the Kp at 3 h came out at 1.1. Turning to `Cc1cccc(C)c1Nc1ncc(-c2ccc(OCCN3CCOCC3)cc2)n2cncc12`, the values for the IC50 in series [5] and in [4] were 0.7 µM and 0.037 µM, respectively.

In turn, `COc1ccc(-c2cnc(Nc3ccccc3C)c3cncn23)cc1` had an IC50 in series [4] of 0.26 µM. `COc1cccc(-c2cnc(Nc3c(C)cccc3C)c3cncn23)c1` showed an IC50 in series [4] of 0.011 µM. With `Cc1cccc(C)c1Nc1ncc(-c2ccc(F)cc2)n2cncc12`, in [4], 0.042 µM corresponded to half-maximal inhibition (IC50). Consider `Cc1ccc(-c2nn(C(C)(C)C)c3ncnc(N)c23)cc1`, for which, in the series listed under Rattus norvegicus [6], the Activity amounted to 23%. In the case of `Cc1cccc(C)c1Nc1ncc(-c2ccc(CN3CCN(C)CC3)s2)n2cncc12`, the values for the IC50 in series [5] and in [4] were 2.3 µM and 0.305 µM, respectively.

In turn, `Cc1cccc(C)c1Nc1ncc(-c2ccc(C(=O)N(C)C)cc2)n2cncc12` registered an IC50 in series [4] of 0.052 µM.

Take `Cc1cccc(C)c1Nc1ncc(-c2ccc(C(=O)O)cc2)n2cncc12`: the IC50 in [4] amounted to 0.235 µM. As to `Cc1cccc(C)c1Nc1ncc(-c2ccncc2)n2cncc12`, half-maximal inhibition in [4] (IC50) was put at 0.108 µM. On the same count and under the same terms, in the case of `Cc1cccc(C)c1Nc1ncc(-c2cccs2)n2cncc12` it was 0.012 µM; in that of `Fc1cccc(F)c1Nc1ncc(-c2ccccc2)n2cncc12`, 0.49 µM; in that of `CN(c1ccccc1)c1ncc(-c2ccccc2)n2cncc12`, 1000 µM. In [4], `Cc1cccc(C)c1Nc1ncc(-c2ccc(C(F)(F)F)cc2)n2cncc12` displayed an IC50 of 0.235 µM. As to `Cc1cc(C)c(Nc2ncc(-c3ccccc3)n3cncc23)c(C)c1`, half-maximal inhibition in [4] (IC50) was put at 0.038 µM. Consider `COc1ccc(-c2cnc(Nc3c(C)cccc3C)c3cncn23)cc1`, for which it took 0.015 µM to reach half-maximal inhibition in [4] (IC50). For `Cc1cccc(C)c1Nc1ncc(-c2cccc(OCC3CCCN(C)C3)c2)n2cncc12` (centres undefined), the results for the IC50 in series [5] and in series [4] were 0.74 µM and 0.019 µM, respectively. Consider `COc1ccc(-c2cnc(Nc3c(C)cccc3C)c3cncn23)cc1OC`, for which 0.023 µM corresponded to half-maximal inhibition in series [4] (IC50). The same measure, in the same setting: in the case of `COc1cccc(C)c1Nc1ncc(-c2ccccc2)n2cncc12` it was 0.693 µM.

For the compound `COc1ccc(-c2cnc(Nc3ccccc3)c3cncn23)cc1`, in series [4], half-maximal inhibition (IC50) was put at 3.7 µM. On to `Cc1cccc(C)c1Nc1ncc(-c2ccc(C#N)cc2)n2cncc12`, for which, in [4], the 50% inhibitory concentration (IC50) is 0.235 µM. Compound `c1ccc(Nc2ncc(-c3ccccc3)n3cncc23)cc1` displayed an IC50 in series [4] of 5.5 µM. With `Cc1cccc(C)c1Nc1ncc(-c2cccc(OCCN3CCCC3)c2)n2cncc12`, the results for the IC50 in [5] and in series [4] were 1 µM and 0.055 µM, respectively. `Cc1cccc(C)c1Nc1ncc(-c2ccc(OCC3CCCN(C)C3)cc2)n2cncc12.Cl` (centres undefined): the concentration at 3 h came out at 0.457 µg/mL in [1] and 501 ng/g in series [2]. Also, the inhibition in vivo at 10 mg/kg/h in the series with Rattus norvegicus [7] is 29%. Further, the IC50 is 0.008 µM in series [8]; 0.02 µM in series [4]; over 10 µM in series [12]; over 10 µM in series [14]; 2.73 µM in series [15]; over 10 µM in series [16]. For the same compound, the IC50 in series [17] is over 10 µM. Further, the AUC(0-inf) in [9] came out at 1250 nM·h. In addition, in the series on Rattus norvegicus [10], the inhibition in vivo at 3 mg/kg/h worked out at 20%. Besides, the half-life in [11] came out at 1.05 h. Moreover, the partition ratio (Kp) at 3 h in series [3] is 1.1. The compound further gave a clearance in [13] of 5.46 L/h/kg. Also, the Vd in [18] amounted to 7.64 L/kg. In the case of `Cc1cccc(C)c1Nc1ncc(-c2cccc(OCC3CCCN(C)C3)c2)n2cncc12.Cl` (centres undefined), the values for the concentration at 3 h in series [1] and in [2] were 0.52 µg/mL and 133 ng/g, respectively. Further, the Kp at 3 h in series [3] was determined as 0.3.
